Structures are written as SMILES.

This assay relates to Myelin Basic Protein (MBP) expression. The assay can be described thus: MBP expression in PMP22 TG sensory neuron/Schwann cell co-cultures (in vitro model of CMT1A). Type of assay: cell-based, rat. To be noted: day 10 (=17 days of culture), doses 1 and 6, in presence of ascorbic acid, compared to control. On the procedure:
A model of co-culture was used as an in vitro model of CMT1A. This model of myelination consists in co-culturing sensory neurons and Schwann cells from male PMP22 Transgenic (TG) dissociated Dorsal Root Ganglia (DRG).
The aim of this study is to assess the effect of 3 test compounds (+/− baclofen, naltrexone and sorbitol) and Mix7 (a mixture of these 3 drugs) on myelination process. The effect of the 3 test compounds, and their mixture on myelination, are assessed by evaluating Myelin Basic Protein (MBP) expression in presence of ascorbic acid.
Each embryo is dispatched on numerating petri dish (35 mm of diameter). The head of embryo is cut, placed on 1.5 ml tube DNAase free; the ADN is extracted with the Extract-N-Amp Tissue Kit (Sigma Aldrich). The genotyping (Male (M) and female (F), wild type and PMP22 transgenic) is performed with the kit Fast SYBR Green Master Mix (Applied Biosystem). This genotyping is performed in parallel of the dissection of dorsal root ganglia (DRG), so that at the end of the dissection, only one type of culture (DRG from transgenic male) is done. DRG of each embryo is collected, placed in ice-cold medium of Leibovitz (L15, Invitrogen). At the end of the dissection, DRG of TGM are pooled and dissociated by trypsinization (trypsin EDTA, 0.05%; Invitrogen) for 20 min at 37° C. The reaction is stopped by addition of DMEM containing 10% of fetal bovine serum (FBS) in the presence of DNAase I (Roche). The suspension is triturated with a 10 ml pipette. Cells are then centrifuged at 350×g for 10 min at room temperature. […] Viable cells are counted in a Neubauer cytometer using the trypan blue exclusion test (Sigma) and seeded on the basis of 10 000 cells per well in 96 well-plates (Greiner) treated with poly-L-lysine. […]
Three separate and independent cultures of DRG (from TG embryos male rats) are done. These conditions are assessed in presence of ascorbic acid, 6 wells per condition. The solution ready to use of all test compounds are extemporaneously prepared from a stock solution, stored at −20° C. […]
As for `NCC(CC(=O)O)c1ccc(Cl)cc1` (racemic) [(RS)-baclofen], the MBP expression entry is reported as “no substantial effect”.

For `OC[C@@H](O)[C@@H](O)[C@H](O)[C@@H](O)CO` [D-sorbitol], the MBP expression entry is “no substantial effect”.

`O=C1CC[C@@]2(O)[C@H]3Cc4ccc(O)c5c4[C@@]2(CCN3CC2CC2)[C@H]1O5` [naltrexone]: the MBP expression entry is recorded as “no substantial effect”.

For the origin of these results see patent publication US10583135B2, “Compositions for treating CMT and related disorders” (Pharnext, priority 2009, dated 2020).
